From patent US10925963B2, “Combination artemisinin and chemiluminescent photodynamic therapy and uses therefor” (Washington University, priority 2015, dated 2021)

Experiments:
[1] = system: asynchronous 3D7 parasites; experiment: Parasite growth of ALA-treated cultures with daily white-light exposure; format: cell-based, Plasmodium falciparum
Experimental: Parasite growth was monitored by diluting asynchronous parasites to 0.5% parasitemia and allowing culture expansion with daily or twice daily media changes. […] To assess the light sensitivity of ALA-treated parasites, asynchronous parasites were cultured in 200-500 μM ALA in the absence or presence of 50 μM succinylacetone and subjected to 2-5 minute daily exposures to broad wavelength white light on an overhead projector. Daily parasitemia measurements were plotted as a function of time and fit to an exponential growth equation using Graph Pad Prism 5.0 (Graph Pad Software, Inc., La Jolla, Calif.).
To test the effects of these changes on bulk parasite culture, the present inventors monitored the growth of untreated versus ALA-treated parasites over several days with 2-minute daily exposures to broad-wavelength white light on an overhead projector light box. FIG. 4 depicts growth of asynchronous 3D7 parasites in the presence or absence of 200 μM ALA and 50 μM succinylacetone (SA), with 2-minute exposures to white light on an overhead projector on days 0-2. Parasitemia (percentage of total erythrocytes infected with parasites) as a function of time was fit with an exponential growth equation.

[2] = system: heme biosynthesis enzymes in the erythrocyte cytoplasm; experiment: LC-MS/MS detection of 13C-labelled PPIX and CPP from 13C-ALA in erythrocyte lysate supernatants; format: biochemical; conditions: 50 μM succinylacetone; 200 μM 5-[13C4]-ALA; saponin lysate supernatant, overnight 37° C.
Experimental: Parasites were cultured in 200 μM 5-[^13C4]-ALA for 12-24 hours, harvested by centrifugation, lysed in 0.05% cold saponin, washed in PBS, and extracted with DMSO. Deuteroporphyrin was added as an internal standard, and extracts were analyzed for ^13C-labeled heme, PPIX, and CPPIII using a previously published liquid chromatography-multiple reaction monitoring tandem mass spectrometry assay (Ke, H. et al., J. Biol. Chem. 289, 34827-34837, 2014).
To assess the heme biosynthesis capacity of the erythrocyte cytoplasm, 500 μl packed red blood cells (described previously; Sigala, P. A., et al., J. Biol. Chem. 287, 37793-37807, 2012) were lysed in 20 ml of 0.04% saponin/PBS (0.2 μM filtered) and centrifuged at 25,000×g for 60 minutes to pellet unlysed cells and any organelles. The superficial 15 ml of the lysate supernatant was removed and 0.2 μM filtered, supplemented with 200 μM 5-[^13C4]-ALA in the absence or presence of 50 μM succinylacetone, incubated overnight at 37° C., and analyzed by tandem mass spectrometry as described above.
In these investigations, red porphyrin fluorescence in ALA-treated intraerythrocytic parasites was not limited to the parasitophorous vacuole but was detectable throughout the erythrocyte cytoplasm (FIG. 3A), as expected for host enzyme activity in this compartment and production of PPIX. […]

[3] = system: 3D7 (drug sensitive) parasites; experiment: Chemiluminescence-based photodynamic therapy (CL-PDT) parasite growth; format: cell-based, Plasmodium falciparum; conditions: 50 μM succinylacetone
Experimental: Parasitemia was measured daily as indicated above.
The present inventors tested whether intraerythrocytic parasites might be uniquely susceptible to chemiluminescence-based photodynamic therapy (CL-PDT) (FIG. 9A). Artemisinin and its derivatives are current frontline drugs used for treatment of malaria, usually in combination with a partner drug. To test the efficacy of an artemisinin CL-PDT strategy for treatment of blood-stage malaria, we incubated intraerythrocytic parasites in 50-100 μM ALA with or without luminol and sub-therapeutic doses (≤10% of EC50) of dihyroartemisinin (DHA), with twice-daily media changes.

[4] = system: Plasmodium-infected erythrocytes; experiment: Fluorescence microscopy of PPIX accumulation in parasite-infected erythrocytes; format: cell-based, Plasmodium falciparum; conditions: parasites grown in 200 μM ALA; epifluorescence microscope
Experimental: (§1) Images of live or fixed parasites were acquired on an Axio Imager.M1 epifluorescence microscope (Carl Zeiss Microimaging, Inc.) equipped with a Hamamatsu ORCA-ER digital CCD camera and running Axiovision 4.8 software, as described previously (Sigala, P. A., et al., J. Biol. Chem. 287, 37793-37807, 2012). Live parasite nuclei were stained with 5 μM Hoechst 33342 added immediately prior to image acquisition. For photodynamic imaging studies, parasites were cultured in 200-500 μM ALA in the absence or presence of 50 μM succinylacetone for 6-12 hours prior to visualization. Hemozoin movement in parasite digestive vacuoles were imaged by acquiring 10-20 sequential frames at 1 second intervals on the bright-field channel. Images were cropped and superimposed in Adobe Photoshop and exported as movie files with a 0.1 second frame delay. […]
The present inventors investigated whether ALA treatment could serve as a probe of heme biosynthesis activity in Plasmodium-infected erythrocytes by enabling direct visualization of PPIX production and the cellular consequences of light activation. Untreated parasites imaged on an epifluorescence microscope display only background auto-fluorescence from hemozoin crystals in the parasite digestive vacuole (FIG. 2). […]

uninfected erythrocytes = experiment: Fluorescence microscopy of uninfected erythrocytes incubated in ALA; format: cell-based; conditions: 500 μM ALA
Experimental: as §1, with “delay. Immunofluorescence images were acquired by fixing and staining parasites as previously described (Tonkin, C. J., et al., Mol. Biochem. Parasitol 137, 13-21, 2004; Ponpuak, M., et al., Mol. Microbiol. 63, 314-334, 2007). Electron microscopy images were obtained as previously described (Beck., J. R., et al., Nature 511, 592-595, 2014).” for “delay.”
FIG. 7A depicts Bright field and fluorescence (Zeiss filter set 43 HE) images of uninfected erythrocytes incubated in 500 μM ALA before or after electroporation.

[5] = system: hemozoin crystals in the parasite digestive vacuole; experiment: Hemozoin dynamics in the digestive vacuole after light exposure; format: cell-based, Plasmodium falciparum; conditions: 200 μM ALA-treated parasites; fluorescence image acquisition overlapping PPIX excitation
Experimental: as §1
The cytotoxic effects of light-activating PPIX were readily apparent by monitoring the motion of hemozoin crystals that dynamically tumble within the digestive vacuole of individual parasites. […] FIG. 3A depicts bright field and fluorescence microscopy images of untreated and 200 μM ALA-treated parasites. Fluorescence images were acquired with a Zeiss filter set 43 HE (excitation 537-562 nm, emission 570-640 nm). […]

| Compound | rescue of photosensitivity of parasite growth in ALA ([1]; 50 μM succinylacetone with 200 μM ALA, 2-minute light exposures) | formation of 13C-labelled PPIX and coproporphyrin III from 13C-ALA [2] | rescue of cytotoxicity of the ALA/luminol/DHA combination [3] | porphyrin (PPIX) fluorescence of infected erythrocytes [4] | growth of cultures in the presence of light ([1]; 200 μM ALA, 2-minute daily exposures to white light on days 0-2) | blood smear examination of light-exposed cultures ([1]; ALA-treated cultures, 2-minute daily white light) | photosensitivity of growth in ALA after apicoplast disruption ([1]; IPP/doxycycline-treated 3D7 parasites, 200 μM ALA, 2-minute light exposures) | photosensitivity of clonal growth in ALA ([1]; ΔPBGD and ΔCPO 3D7 parasite lines, 200 μM ALA, 2-minute light exposures days 0-2) | porphyrin fluorescence of uninfected erythrocytes (uninfected erythrocytes; after electroporation) | porphyrin fluorescence of uninfected erythrocytes (uninfected erythrocytes; without electroporation) | hemozoin dynamics after light [5] |
| --- | --- | --- | --- | --- | --- | --- | --- | --- | --- | --- | --- |
| CC(=O)CC(=O)CCC(=O)O [succinylacetone] | fully rescued | fully blocked | could be rescued | – | – | – | – | – | – | – | – |
| NCC(=O)CCC(=O)O [ALA, 5-aminolevulinic acid] | – | – | – | bright red fluorescence | strongly attenuated by light | predominantly contained pyknotic parasites | remained fully photosensitive | remained fully photosensitive | robust intracellular porphyrin fluorescence | no detectable porphyrin fluorescence | rapidly ablated by light |
